Assay results from ChEMBL document CHEMBL1143346, “Solid-phase parallel synthesis and SAR of 4-amidofuran-3-one inhibitors of cathepsin S: effect of sulfonamides P3 substituents on potency and selectivity” (Bioorg Med Chem, 2009).

Experiments:
Cathepsin S = Cathepsin S (Homo sapiens, UniProt P25774); assay: Inhibition of human recombinant cathepsin S expressed in baculovirus by fluorescence assay
Cathepsin K = biological target: T1, Cathepsin K (Homo sapiens, UniProt P43235); assay: Inhibition of human recombinant cathepsin K expressed in baculovirus by fluorescence assay
T1 sequence (P43235 whole entry): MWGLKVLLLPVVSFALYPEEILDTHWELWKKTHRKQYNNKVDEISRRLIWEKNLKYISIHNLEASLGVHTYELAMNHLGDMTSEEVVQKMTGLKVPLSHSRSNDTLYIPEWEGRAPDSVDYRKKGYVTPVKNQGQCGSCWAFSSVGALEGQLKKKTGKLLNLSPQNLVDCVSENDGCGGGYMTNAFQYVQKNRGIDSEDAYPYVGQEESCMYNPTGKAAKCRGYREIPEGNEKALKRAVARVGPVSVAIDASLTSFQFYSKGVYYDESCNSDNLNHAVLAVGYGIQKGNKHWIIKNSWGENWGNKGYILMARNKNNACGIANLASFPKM

Procathepsin L = Procathepsin L (Homo sapiens, UniProt P07711); assay: Inhibition of human cathepsin L by fluorescence assay
Chain of Procathepsin L (P07711 whole entry): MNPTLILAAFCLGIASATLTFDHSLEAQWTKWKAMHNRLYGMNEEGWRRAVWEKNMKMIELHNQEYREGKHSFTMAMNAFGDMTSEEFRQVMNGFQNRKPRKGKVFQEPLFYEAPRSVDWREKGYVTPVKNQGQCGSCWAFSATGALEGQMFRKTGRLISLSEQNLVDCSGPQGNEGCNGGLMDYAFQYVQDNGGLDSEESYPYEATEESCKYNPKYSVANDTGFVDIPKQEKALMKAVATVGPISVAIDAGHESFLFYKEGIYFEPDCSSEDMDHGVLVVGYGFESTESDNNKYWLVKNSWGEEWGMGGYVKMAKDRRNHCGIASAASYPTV

Chain of Cathepsin S (P25774 whole entry): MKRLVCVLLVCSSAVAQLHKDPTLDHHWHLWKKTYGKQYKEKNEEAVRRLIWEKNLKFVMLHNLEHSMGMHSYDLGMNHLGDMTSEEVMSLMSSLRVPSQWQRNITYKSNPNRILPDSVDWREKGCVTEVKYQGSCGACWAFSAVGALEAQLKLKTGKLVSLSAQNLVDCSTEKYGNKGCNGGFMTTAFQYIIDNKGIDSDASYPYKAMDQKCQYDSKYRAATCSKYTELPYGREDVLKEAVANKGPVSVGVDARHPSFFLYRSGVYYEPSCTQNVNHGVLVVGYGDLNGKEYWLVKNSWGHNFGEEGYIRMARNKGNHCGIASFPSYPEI

Structure (SMILES) | Ki (Cathepsin S) [nM] | Ki (Cathepsin K) [nM] | Ki (Procathepsin L) [nM]
CC[C@@H]1OCC(=O)[C@H]1NC(=O)[C@H](CC1(C)CCCC1)NC(=O)c1ccc(NS(=O)(=O)c2ccccc2)c(C)c1 | 4 | 730 | 2300
CC[C@@H]1OCC(=O)[C@H]1NC(=O)[C@H](CC1(C)CCCC1)NC(=O)c1ccc(NS(=O)(=O)c2ccccc2)c(Cl)c1 | 12 | 1600 | 1100
CC[C@@H]1OCC(=O)[C@H]1NC(=O)[C@H](CC1(C)CCCC1)NC(=O)c1ccc(NS(=O)(=O)c2ccc(F)cc2)cc1 | 2 | 370 | 5900
CC[C@@H]1OCC(=O)[C@H]1NC(=O)[C@H](CC1(C)CCCC1)NC(=O)c1ccc(NS(=O)(=O)c2ccc(OC)cc2)cc1 | 3.3 | 500 | 11000
CC[C@@H]1OCC(=O)[C@H]1NC(=O)[C@H](CC1(C)CCCC1)NC(=O)c1ccc(NS(=O)(=O)c2cccc(OC)c2)cc1 | 1 | 270 | 14000
CC[C@@H]1OCC(=O)[C@H]1NC(=O)[C@H](CC1(C)CCCC1)NC(=O)c1ccc(NS(C)(=O)=O)cc1OC | 330 | 5000 | 29000
CC[C@@H]1OCC(=O)[C@H]1NC(=O)[C@H](CC1(C)CCCC1)NC(=O)c1ccc(NS(C)(=O)=O)c(C)c1 | 4.9 | 240 | 2000
CC[C@@H]1OCC(=O)[C@H]1NC(=O)[C@H](CC1(C)CCCC1)NC(=O)c1ccc(NS(C)(=O)=O)c(OC)c1 | 26 | 560 | 7200
CC[C@@H]1OCC(=O)[C@H]1NC(=O)[C@H](CC1(C)CCCC1)NC(=O)c1ccc(NS(C)(=O)=O)c(F)c1 | 16 | 700 | 7800
CC[C@@H]1OCC(=O)[C@H]1NC(=O)[C@H](CC1(C)CCCC1)NC(=O)c1ccc(NS(C)(=O)=O)c(C(C)=O)c1 | 57 | 750 | 9500

The remaining lines, values ahead:

Ki (Cathepsin S) [nM] | Ki (Cathepsin K) [nM] | Ki (Procathepsin L) [nM] | Structure (SMILES)
2.6 | 290 | 12000 | CC[C@@H]1OCC(=O)[C@H]1NC(=O)[C@H](CC1(C)CCCC1)NC(=O)c1ccc(NS(C)(=O)=O)cc1
0.9 | 260 | 8700 | CC[C@@H]1OCC(=O)[C@H]1NC(=O)[C@H](CC1(C)CCCC1)NC(=O)c1ccc(NS(=O)(=O)c2cnccc2C)cc1
5.7 | 1700 | 9100 | CC[C@@H]1OCC(=O)[C@H]1NC(=O)[C@H](CC1(C)CCCC1)NC(=O)c1ccc(NS(=O)(=O)c2nc(C(C)C)cs2)cc1
0.7 | 1800 | 16000 | CC[C@@H]1OCC(=O)[C@H]1NC(=O)[C@H](CC1(C)CCCC1)NC(=O)c1ccc(NS(=O)(=O)c2sc(C)nc2C)cc1
3.4 | 520 | 7800 | CC[C@@H]1OCC(=O)[C@H]1NC(=O)[C@H](CC1(C)CCCC1)NC(=O)c1ccc(NS(=O)(=O)c2cccc(F)c2)cc1
31 | 1700 | 15000 | CC[C@@H]1OCC(=O)[C@H]1NC(=O)[C@H](CC1(C)CCCC1)NC(=O)c1ccc(NS(=O)(=O)Cc2ccccc2)cc1
3.9 | 550 | 8400 | CC[C@@H]1OCC(=O)[C@H]1NC(=O)[C@H](CC1(C)CCCC1)NC(=O)c1ccc(NS(=O)(=O)c2ccccc2C)cc1
1.3 | 950 | 9100 | CC[C@@H]1OCC(=O)[C@H]1NC(=O)[C@H](CC1(C)CCCC1)NC(=O)c1ccc(NS(=O)(=O)c2ccc(N)cc2)cc1
2.4 | 440 | 12000 | CC[C@@H]1OCC(=O)[C@H]1NC(=O)[C@H](CC1(C)CCCC1)NC(=O)c1ccc(NS(=O)(=O)C2CC2)cc1
1.9 | 470 | 17000 | CC[C@@H]1OCC(=O)[C@H]1NC(=O)[C@H](CC1(C)CCCC1)NC(=O)c1ccc(NS(=O)(=O)CC)cc1
2.1 | 570 | 14000 | CC[C@@H]1OCC(=O)[C@H]1NC(=O)[C@H](CC1(C)CCCC1)NC(=O)c1ccc(NS(=O)(=O)c2cccnc2)cc1
2.3 | 450 | 13000 | CC[C@@H]1OCC(=O)[C@H]1NC(=O)[C@H](CC1(C)CCCC1)NC(=O)c1ccc(NS(=O)(=O)c2ccccn2)cc1
2.7 | 1100 | 13000 | CC[C@@H]1OCC(=O)[C@H]1NC(=O)[C@H](CC1(C)CCCC1)NC(=O)c1ccc(NS(=O)(=O)c2ccncc2)cc1
